Data published in patent US11524966B1 (Valo Early Discovery, Inc., priority 2017, dated 2022).

Biological target: T1, USP25 (USP25-His6, Boston Biochem E-546) (Homo sapiens, UniProt Q9UHP3)
T1 construct: His6; purchased Boston Biochem E-546
T1 sequence (Q9UHP3 1-1055): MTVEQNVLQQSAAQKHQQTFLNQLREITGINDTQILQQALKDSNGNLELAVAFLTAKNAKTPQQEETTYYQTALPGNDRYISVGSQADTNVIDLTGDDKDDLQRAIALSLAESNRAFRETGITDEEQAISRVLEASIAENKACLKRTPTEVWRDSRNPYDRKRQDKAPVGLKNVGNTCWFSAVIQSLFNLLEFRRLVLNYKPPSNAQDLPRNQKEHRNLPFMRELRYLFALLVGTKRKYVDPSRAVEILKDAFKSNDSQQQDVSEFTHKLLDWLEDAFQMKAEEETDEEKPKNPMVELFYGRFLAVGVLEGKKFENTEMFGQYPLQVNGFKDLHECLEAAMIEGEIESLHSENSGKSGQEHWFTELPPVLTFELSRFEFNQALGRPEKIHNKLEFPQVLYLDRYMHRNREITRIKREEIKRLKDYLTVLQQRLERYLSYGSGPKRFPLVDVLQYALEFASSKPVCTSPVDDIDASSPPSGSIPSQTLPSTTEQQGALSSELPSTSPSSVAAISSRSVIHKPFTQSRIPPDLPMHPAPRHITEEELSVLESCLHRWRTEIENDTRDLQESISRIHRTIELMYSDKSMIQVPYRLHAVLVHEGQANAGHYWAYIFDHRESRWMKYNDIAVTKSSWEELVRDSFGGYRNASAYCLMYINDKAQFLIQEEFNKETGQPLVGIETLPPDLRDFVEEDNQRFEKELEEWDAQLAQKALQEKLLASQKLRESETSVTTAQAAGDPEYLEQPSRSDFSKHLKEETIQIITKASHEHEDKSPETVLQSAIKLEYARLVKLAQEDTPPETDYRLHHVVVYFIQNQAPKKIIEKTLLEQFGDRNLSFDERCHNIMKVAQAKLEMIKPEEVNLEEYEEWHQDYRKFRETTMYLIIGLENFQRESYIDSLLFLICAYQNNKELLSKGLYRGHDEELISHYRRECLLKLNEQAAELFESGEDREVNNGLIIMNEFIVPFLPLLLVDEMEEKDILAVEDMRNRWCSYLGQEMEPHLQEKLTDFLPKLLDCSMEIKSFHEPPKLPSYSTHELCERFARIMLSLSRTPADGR
Test: Ubiquitin-Rhodamine 110 Assay for USP25 Activity, Example A-2
Format: biochemical
Details: Ubiquitin-Rhodamine 110 assay, format Example A-2; read-out: USP25 A-2 IC50 range
Procedure, shortened: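 USP25-His6 (75 pM) was preincubated with compound (10-point, 3-fold series, 25 μM to 1.3 nM) for 30 min in 20 mM Tris-HCl pH 8.0, 3 mM BME, 0.03% BGG, 0.01% Triton X-100. Ub-Rh110 (25 nM, <<Km) was then added for 45 min at room temperature, citric acid-stopped, and fluorescence read at 485/535 nm.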

| Structure (SMILES) | IC50 [nM] |
| --- | --- |
| Cc1ccc2c(N)c(C(=O)N[C@H]3COc4nc(N5CCNCC5)ccc4C3)sc2n1 [Example 19, (R)-3-Amino-6-methyl-N-(7-(piperazin-1-yl)-3,4-dihydro-2H-pyrano[2,3-b]pyridin-3-yl)thieno[2,3-b]pyridine-2-carboxamide] | 200 to 2000 |
| Cc1ccc2c(N)c(C(=O)N[C@H]3COc4nc(N5CCNCC5)c(F)cc4C3)sc2n1 [Example 20, (R)-3-Amino-N-(6-fluoro-7-(piperazin-1-yl)-3,4-dihydro-2H-pyrano[2,3-b]pyridin-3-yl)-6-methylthieno[2,3-b]pyridine-2-carboxamide] | 200 to 2000 |
| CO[C@H]1CN(c2ccc3c(n2)CC[C@H](NC(=O)c2sc4nc(C)cc(C)c4c2N)C3)C[C@@H]1N [Example 23-3, 3-amino-N-[(6S)-2-[(3S,4S)-3-amino-4-methoxypyrrolidin-1-yl]-5,6,7,8-tetrahydroquinolin-6-yl]-4,6-dimethylthieno[2,3-b]pyridine-2-carboxamide] | > 2000 |
| CO[C@H]1CN(c2ccc3c(n2)CC[C@H](NC(=O)c2sc4nc(C)ccc4c2N)C3)C[C@@H]1N [Example 23-4, 3-amino-N-[(6S)-2-[(3S,4S)-3-amino-4-methoxypyrrolidin-1-yl]-5,6,7,8-tetrahydroquinolin-6-yl]-6-methylthieno[2,3-b]pyridine-2-carboxamide] | > 2000 |
| CO[C@H]1CN(c2ccc3c(n2)CC[C@@H](NC(=O)c2sc4nc(C)ccc4c2N)C3)C[C@@H]1N [Example 23-5, 3-amino-N-[(6R)-2-[(3S,4S)-3-amino-4-methoxypyrrolidin-1-yl]-5,6,7,8-tetrahydroquinolin-6-yl]-6-methylthieno[2,3-b]pyridine-2-carboxamide] | > 2000 |
